Patent publication US20250154135A1, “M-CHOLINE RECEPTOR AGONIST COMPOUND, PREPARATION METHOD THEREFOR AND USE THEREOF” (NANJING GRITPHARMA CO., LTD., priority 2022, published 2025)
Where “and” joins values, the source holds several entries; their conditions need not be identical. Identical values can stand only once. Counter-ions that a name gives are not always drawn. Values belong to the molecule of their own block, whether it stands above or below them.

How the values were obtained:
rabbit pupil [1] = experiment: Rabbit pupil constriction after single eye drop (Test Example 1); type: in vivo, New Zealand rabbit; conditions: rabbits, Test Example 1 solutions
Procedure: Except for group 5), the eye drop solutions of groups 1) to 12) described above contained an equimolar concentration of pilocarpine. The molar concentration of pilocarpine in the eye drop solution of group 5) was half of the molar concentration of pilocarpine in the solutions of the other 11 groups.
The effects of the eye drop solutions of groups 1) to 12) prepared above on rabbit pupil constriction and irritation were tested separately.
• Species and strain: New Zealand rabbit • Grade: normal • Source: Qinglongshan Animal Breeding Farm, Jiangning District, Nanjing • Production license No.: SCXK (Su) 2016-0008 • Animal age: about 110 days old at the time of administration • Animal body weight: about 2.5-3.5 kg at the time of administration • Animal sex: all male • Feed: rabbit pellet feed • Housing conditions: air-conditioned room, with a temperature of 18-26° C. and a relative humidity of 40%-80%.
• Digital vernier caliper: specification: 0-150 mm; measurement accuracy: 0.01 mm; manufacturer: Guilin Guanglu Measuring Instrument Co., Ltd.
(§1) Each rabbit was subjected to eye drop administration in the left eye (using a pipette), with an administration volume of 100 μL.
• Number of animals: for JQ series compounds, 6 rabbits per compound; for compounds 1, 2 and 4, 5 rabbits per compound. • Administration schedule: single administration. Measurement indicators and time points: • for JQ series compounds, the pupil diameter of the left eye of the rabbits was measured at time points of −0.5 h (i.e., half an hour before administration), 5 min, 10 min, 15 min, 0.5 h, 3 h and 4 h relative to administration, with the measurement repeated 3 times for each rabbit at each time point (measurement time points were extended if necessary); • for compounds 1, 2 and 4, the pupil diameter of the left eye of the rabbits was measured at time points of 3 h and 4 h relative to administration, with the measurement repeated 3 times for each rabbit at each time point (measurement time points were extended if necessary).
Percentage change in pupil diameter (%) after administration=(pupil diameter after administration−pupil diameter before administration)/pupil diameter before administration×100%
The measurement result for each rabbit at each time point was represented by the average value of three measurements.

rabbit pupil [2] = experiment: Rabbit pupil diameter change with other pilocarpine salts (Test Example 2); type: in vivo; conditions: for Percentage change in pupil diameter: average value ± SD; for miosis effect on rabbit pupils 3 h after administration: Table 2-1 solutions, equimolar pilocarpine
Text: Pilocarpine nitrate: with a molecular weight of 271.27 and a purity of 98%, from Nanjing Jiqun Pharmaceutical Technology Co., Ltd., prepared into a 1.38% solution using normal saline. Pilocarpine salicylate: with a molecular weight of 346.24 and a purity of 99.73%, from Nanjing Jiqun Pharmaceutical Technology Co., Ltd., prepared into a 1.76% solution using normal saline. Pilocarpine malate: with a molecular weight of 342.21 and a purity of 99.72%, from Nanjing Jiqun Pharmaceutical Technology Co., Ltd., prepared into a 1.74% solution using normal saline. Pilocarpine maleate: with a molecular weight of 324.19 and a purity of 99.76%, from Nanjing Jiqun Pharmaceutical Technology Co., Ltd., prepared into a 1.65% solution using normal saline. Pilocarpine fumarate: with a molecular weight of 324.19 and a purity of 99.74%, from Nanjing Jiqun Pharmaceutical Technology Co., Ltd., prepared into a 1.65% solution using normal saline. Pilocarpine lipoate: with a molecular weight of 414.58 and a purity of 99.56%, from Nanjing Jiqun Pharmaceutical Technology Co., Ltd., prepared into a 2.11% solution using normal saline. Note: The concentrations of the compounds were different, but they all contained an equimolar amount of pilocarpine. Each rabbit in each group was subjected to single eye drop administration in the left eye, with an administration volume of 100 μL. […] The entire measurement process was completed by the same person.

rabbit eyes = experiment: Eye irritation in rabbits (Test Example 2); type: in vivo; conditions: 2.11% solution
rabbit pupil [3] = experiment: Rabbit pupil diameter change, pilocarpine p-toluate at different concentrations (Test Example 3); type: in vivo; conditions: 1.25%
Procedure: Under the condition of normal saline, the onset time, strength of effect, duration of effect, and irritation of 1.25% pilocarpine hydrochloride and different concentrations (0.88%, 1.75%, 3.50%) of pilocarpine p-toluate were tested.
as §1
Number of animals: 6 rabbits per compound.
Administration schedule: single administration.
• the pupil diameter of the left eye of the rabbits was measured at time points of −0.5 h (i.e., half an hour before administration), 5 min, 10 min, 15 min, 0.5 h, 3 h and 4 h relative to administration, with the measurement performed 3 times for each rabbit at each time point.

[4] = Stability tests on compound starting materials (HPLC related substances); type: physicochemical; conditions: starting material
Procedure: Samples: compound 1, compound 2 and pilocarpine hydrochloride starting material solid particles.
High-temperature test: 1 g of each of compound 1, compound 2 and pilocarpine hydrochloride starting materials were taken and placed in an open container inside a constant temperature device at 40° C.; samples were taken at time points of day 0 and day 5, and then tested according to the key stability examination items. The stability of the active pharmaceutical ingredient itself and the trend of changes in stability under the conditions of influencing factor tests were observed.
Strong light irradiation test: 1 g of each of compound 1, compound 2 and pilocarpine hydrochloride starting materials were taken and placed in an open container inside a light irradiation box, with the illumination set at 4500 lx±500 lx; samples were taken at time points of day 0 and day 5, and then tested according to the key stability examination items.
High-humidity test: 1 g of each of compound 1, compound 2 and pilocarpine hydrochloride starting materials was taken and placed in an open container inside a constant humidity closed container at 25° C. and with a relative humidity of 75%±5%; samples were taken at day 0 and day 5, and then tested according to the requirements of the key stability examination items.
According to the records in the European Pharmacopoeia (EP), the key related substances to be examined for pilocarpine include: impurity A isopilocarpine (Z-A), impurity B pilocarpic acid (Z-B), and impurity C isopilocarpic acid (Z-C). The samples taken at different time points from the above high-temperature test, strong light irradiation test and high-humidity test were separately tested using high-performance liquid chromatography to observe the trend of changes in stability under the conditions of the influencing factor tests.
The related substances were determined according to the high-performance liquid chromatography (General Chapter 0512, Chinese Pharmacopoeia, Volume IV, 2020 Edition).
Test sample solution: an appropriate amount of each test sample was precisely weighed, dissolved in water, and diluted to prepare a solution containing 1 mg of test sample per 1 mL.
Chromatographic conditions: octadecyl bonded silica gel was used as a filler [kromasil 100-5-C18 column (4.0 mm×[…]) or a chromatographic column with equivalent performance], 0.679 g/L tetrabutylammonium dihydrogen phosphate-methanol-acetonitrile (885:55:60) (adjusted to pH 7.7 with dilute aqueous ammonia) was used as mobile phase A, and acetonitrile-water (80:20) was used as mobile phase B; gradient elution was performed according to Table 6-1, with a column temperature of 30° C., a flow rate of 1.0 mL/min, a detection wavelength of 220 nm, and a sample injection volume of 20 μL.

[5] = Light-5 days (4500 lx), hydrochloride
[6] = RH 75%-5 days, 25° C., hydrochloride
[7] = drug concentration 1.65%, 0.5 h

Molecule: CC[C@@H]1C(=O)OC[C@@H]1Cc1cncn1C [Compound 4]
pupil constriction (miosis) effect at 3 h after administration (rabbit pupil [1]): still showed miosis effect

Molecule: CC[C@@H]1C(=O)OC[C@@H]1Cc1cncn1C.O=C(O)CCCCC1CCSS1 [Pilocarpine lipoate]
Percentage change in pupil diameter (rabbit pupil [2]; drug concentration 2.11%, 0.5 h): −40.69 ± 2.68% | Percentage change in pupil diameter (rabbit pupil [2]; drug concentration 2.11%, 3 h): −3.11 ± 2.38% | eye irritation on administration (rabbit eyes): caused significant irritation and noticeable hyperemia

Molecule: CC[C@@H]1C(=O)OC[C@@H]1Cc1cncn1C [Pilocarpine nitrate]
miosis effect on rabbit pupils 3 h after administration (rabbit pupil [2]): substantially no miosis effect

Molecule: CCC1C(=O)OCC1Cc1cncn1C.O=C(O)c1ccccc1O (stereo not shown) [Pilocarpine salicylate]
miosis effect on rabbit pupils 3 h after administration (rabbit pupil [2]): substantially no miosis effect | Percentage change in pupil diameter (rabbit pupil [2]; drug concentration 1.76%, 0.5 h): −30.12 ± 4.47% | Percentage change in pupil diameter (rabbit pupil [2]; drug concentration 1.76%, 3 h): 2.91 ± 1.07%

(Z-C) impurity C isopilocarpic acid ([4]; 40° C.-5 days): 0% | Maximum single impurity ([4]; 40° C.-5 days): 0% | (Z-A) impurity A isopilocarpine ([4]; 40° C.-5 days, hydrochloride): 0.248% | (Z-B) impurity B pilocarpic acid ([4]; 40° C.-5 days, hydrochloride): 0% | Total impurity ([4]; 40° C.-5 days, hydrochloride): 0.248% | (Z-B) impurity B pilocarpic acid ([4]; Day 0): 0% | (Z-C) impurity C isopilocarpic acid ([4]; Day 0): 0% | Maximum single impurity ([4]; Day 0): 0% | (Z-A) impurity A isopilocarpine ([4]; Day 0, hydrochloride): 0.197% | Total impurity ([4]; Day 0, hydrochloride): 0.197% | (Z-C) impurity C isopilocarpic acid ([4]; Light-5 days (4500 lx)): 0% | Maximum single impurity ([4]; Light-5 days (4500 lx)): 0% | (Z-A) impurity A isopilocarpine [4, 5]: 0.248% | (Z-B) impurity B pilocarpic acid [4, 5]: 0% | Total impurity [4, 5]: 0.248% | (Z-C) impurity C isopilocarpic acid ([4]; RH 75%-5 days, 25° C.): 0% | (Z-A) impurity A isopilocarpine [4, 6]: 0.259% | (Z-B) impurity B pilocarpic acid [4, 6]: 1.641% | Maximum single impurity [4, 6]: 0.123% | Total impurity [4, 6]: 2.023%
Molecule: CC[C@@H]1C(=O)OC[C@@H]1Cc1cncn1C [pilocarpine hydrochloride, reference compound]
miosis effect on rabbit pupils 3 h after administration (rabbit pupil [2]): substantially no miosis effect | Percentage change in pupil diameter (rabbit pupil [3]; 5 min, average of 6 rabbits): −7.81% | Percentage change in pupil diameter (rabbit pupil [3]; 5 min, individual rabbit, hydrochloride): −6.28% and −7.23% and −8.93% and −6.51% and −15.75% and −2.17% | Percentage change in pupil diameter (rabbit pupil [3]; 10 min, average of 6 rabbits): −29.35% | Percentage change in pupil diameter (rabbit pupil [3]; 10 min, individual rabbit, hydrochloride): −29.40% and −32.93% and −28.98% and −26.64% and −36.43% and −21.69% | Percentage change in pupil diameter (rabbit pupil [3]; 15 min, average of 6 rabbits): −35.33% | Percentage change in pupil diameter (rabbit pupil [3]; 15 min, individual rabbit, hydrochloride): −40.68% and −36.99% and −33.54% and −33.71% and −42.10% and −24.95% | Percentage change in pupil diameter (rabbit pupil [3]; 0.5 h, average of 6 rabbits): −34.59% | Percentage change in pupil diameter (rabbit pupil [3]; 0.5 h, individual rabbit, hydrochloride): −36.45% and −36.62% and −38.14% and −32.89% and −39.82% and −23.64% | Percentage change in pupil diameter (rabbit pupil [3]; 3 h, average of 6 rabbits): −3.13% | Percentage change in pupil diameter (rabbit pupil [3]; 3 h, individual rabbit, hydrochloride): 4.54% and −0.58% and 0.03% and −6.71% and −16.22% and 0.16% | Percentage change in pupil diameter (rabbit pupil [3]; 4 h, average of 6 rabbits): 0.25% | Percentage change in pupil diameter (rabbit pupil [3]; 4 h, individual rabbit, hydrochloride): −0.15% and −1.79% and 2.79% and 2.49% and −2.39% and 0.54% | maximum percentage change in pupil diameter (rabbit pupil [1]): around 35% | pupil constriction (miosis) effect at 3 h after administration (rabbit pupil [1]; hydrochloride): substantially no pupil constriction effect

Molecule: Pilocarpine fumarate
miosis effect on rabbit pupils 3 h after administration (rabbit pupil [2]): substantially no miosis effect | Percentage change in pupil diameter (rabbit pupil [2]; [7]): −22.09 ± 6.44% | Percentage change in pupil diameter (rabbit pupil [2]; drug concentration 1.65%, 3 h): −1.00 ± 1.51%

Molecule: Pilocarpine malate
miosis effect on rabbit pupils 3 h after administration (rabbit pupil [2]): substantially no miosis effect | Percentage change in pupil diameter (rabbit pupil [2]; drug concentration 1.74%, 0.5 h): −27.71 ± 4.98% | Percentage change in pupil diameter (rabbit pupil [2]; drug concentration 1.74%, 3 h): 0.07 ± 2.49%

Molecule: Pilocarpine maleate
miosis effect on rabbit pupils 3 h after administration (rabbit pupil [2]): substantially no miosis effect | Percentage change in pupil diameter (rabbit pupil [2]; [7]): −27.53 ± 4.42% | Percentage change in pupil diameter (rabbit pupil [2]; drug concentration 1.65%, 3 h): −1.52 ± 6.38%
